Legend:
[1] = test system: clinically latent microorganisms; assay: Screening for ability to kill clinically latent microorganisms (method of WO2000028074); assay type: cell-based; settings: observed by the Applicant
Text: International Patent Application, Publication Number WO2000028074 describes a method of screening compounds to determine their ability to kill clinically latent microorganisms. […] This observation has necessitated the development of novel antimicrobials which may be used to kill clinically latent microorganisms.
By way of example, WO2000028074 describes a suitable method of screening compounds to determine their ability to kill clinically latent microorganisms. A typical method may include the following steps: • (1) growing a bacterial culture to stationery phase; • (2) treating the stationery phase culture with one or more antimicrobial agents at a concentration and or time sufficient to kill growing bacteria, thereby selecting a phenotypically resistant sub-population; • (3) incubating a sample of the phenotypically resistant subpopulation with one or more test compounds or agents; and • (4) assessing any antimicrobial effects against the phenotypically resistant subpopulation.

[2] = test system: log phase Staphylococcus aureus; assay: Chequerboard analysis of HT00800059 with HT230 or HT281 against log phase Staphylococcus aureus; assay type: cell-based, Staphylococcus aureus (Oxford); settings: for optical density reading at 405 nm: HT00800059 μg/ml: 1024,512,256,128,64,32,16,0, 24 hours; for MIC: Staphylococcus aureus, summary list, read-out: alone MIC
Description: (§1) Staphylococcus aureus (Oxford); Gram positive; Reference strain.
(§2) Log phase growth of methicilin sensitive Staphylococcus aureus (MSSA) was carried out as follows: • Bacteria were grown in 10 ml of nutrient broth (No. 2, (Oxoid)) overnight at 37° C. with continuous shaking at 120 rpm. The overnight cultures were diluted 1000× with iso-sensitest broth. The cultures were incubated at 37° C. with shaking for 1-2 hours to reach log CFU 6. Viability of the bacteria was estimated by colony forming unit (CFU) counts. From serial 10-fold dilutions of the experimental cultures, 100 μl samples were added to triplicate plates of nutrient agar plates (Oxoid) or blood agar plates (Oxoid). CFUs were counted after incubation of the plates at 37° C. for 24 hours.
(§3) Bacterial cultures: 10 μl of overnight cultures was added to 10 ml of fresh iso-sensitest broth to make the inoculation to 10^6 CFU/ml. 290 μl of the cell suspension was added to each well of the 96 well plate, which was incubated at 37° C. for 24 hours. 300 μl of iso-sensitest broth without bacterial cells were added to wells of the plate as a no bacterial control.
(§4) MIC determination: The optical density of the bacterial cells was read at 405 nm using a plate reader (Bio TEK). The MIC concentration was determined as the lowest concentration of drug which inhibits the bacterial growth.
HT230 was dissolved in DMSO to the stock concentration of 10 mg/ml.
HT281 was dissolved in DMSO to the stock concentration of 10 mg/ml.
(§5) HT00800059 was dissolved in H2O to the stock solution 30.07 mg/ml.
HT230 or HT281 (10 mg/ml) was firstly diluted to 0.96 mg/ml, then a serial of 2 fold dilution was carried out.
This was followed by the addition of 280 μl of log phase culture at 10^6 CFU/ml to make the final concentrations of each drug as shown.
In the above table, values in bold text are for HT00800059. Values in plain text are for HT230 or HT281. The numbers shown in each well are μg/ml.
Incubation of the compounds with the bacterial suspension was carried out for 24 hours. The kill effects of the drug combination were measured by optical density reading at 405 nm with a plate reader (Bio TEK).
(§6) The fractional inhibitory concentration (FIC) index was carried out as follows: (MIC of drug A, tested in combination)/(MIC of drug A, tested alone)+(MIC of drug B, tested in combination)/(MIC of drug B, tested alone). The interaction was defined as synergistic if the FIC index was <1, additive if the FIC index was =1 and antagonistic if the FIC index was >1.

[3] = test system: stationary phase Staphylococcus aureus; assay: In vitro efficacy test against stationary phase Staphylococcus aureus (CFU counts); assay type: cell-based, Staphylococcus aureus (Oxford); settings: CFU counts over 8 hours
Description: as §1
Stationary phase growth of methicilin sensitive Staphylococcus aureus (MSSA) was carried out as follows:
Subculture of the bacterial strains on agar plates: Overnight S. aureus bacterial cultures were stored at −70° C. with 20% glycerol (cryoprotectant). A loopful of the frozen cells was streaked on a blood agar plate which was incubated at 37° C. overnight (or longer) as culture plate A. A single colony of each strain from the culture plate A was streaked on the blood agar plate which was incubated at 37° C. overnight (or longer) as culture plate B. The culture plate B was stored at 4° C. for a week and served as the initial inoculation plate.
Bacterial growth in broth culture: A single colony from culture plate B was inoculated in 10 ml of nutrient broth (No. 2, (Oxoid)), which was incubated overnight at 37° C. with continuous shaking at 120 rpm. 200 μl of the overnight culture was added into a 500 ml bottle containing 100 ml of nutrient broth. The 100 ml culture was incubated at 37° C. with continuous shaking for 6 to 7 days. Viability of the cultures is estimated by colony forming unit (CFU) counts at 2 hour intervals for the first 24 hours and 12 to 24 hours afterwards.
Colony Forming Unit (CFU) counts were performed as follows: From serial 10-fold dilutions of the cultures, 100 μl samples were added to one third of blood agar plates (Oxoid) in triplicate. CFUs were counted using an aCoLyte colony counter (Synbiosis) after incubation of the plates at 37° C. for 24 hours or longer.
7 day old stationary phase cultures were used. The stationary phase cultures were diluted to obtain CFU counts in the cell suspension of 10^6 to 10^7 CFU/ml. The cell suspension was used to test drug sensitivity.
(§7) HT61 was dissolved in DMSO to the stock concentration of 10 mg/ml.
HT00800059 was dissolved in H2O to the stock solution 10 mg/ml
The drugs were first diluted as follows: • 7.2 μl of HT61 at 10 mg/ml was added into 292.8 μl of H2O followed by diluting 2 fold, 3 times. • 57.6 μl of HT00800059 at 10 mg/ml was added into 242.4 μl of H2O followed by diluting 2 fold, 2 times. • 10 μl of HT00800059 from each dilution was added into the wells of a 96 well plate followed by the addition of 290 μl of bacterial cell suspension to make the final concentrations of HT00800059 at 64, 32 and 0 μg/ml. • […]
In combination of two drugs: 10 μl of HT61 from each dilution was added into the wells of a 96 well plate followed by the addition of 10 μl of HT00800059 from each dilution. […]

[4] = test system: log phase Staphylococcus aureus; assay: Chequerboard analysis of HT00800059 and HT61 against log phase Staphylococcus aureus; assay type: cell-based, Staphylococcus aureus (Oxford)
Description: as §1, §2, §3, §4, §7, §5
The drugs were first diluted as follows: • 28.8 μl of HT61 at 10 mg/ml was added into 271.2 μl of H2O followed by diluting 2 fold for 6 times.
Both drugs were mixed as following pattern: 10 μl of HT00800059 from each dilution was added into the wells of a 96 well plate from top to bottom and 10 μl of HT61 from each dilution was added to the same 96 well plate from left to right. After addition of 280 μl log phase cell suspension, the final concentrations of drugs for each well in the 96 well plate are shown in the table below.
Incubation of the compounds with the bacterial suspension was carried out for 24 hours. The kill effect of the drug combination and signal drug MIC was measured by optical density reading at 405 nm with a plate reader (Bio TEK). The MIC concentration was determined as the lowest concentration of drug which inhibits the bacterial growth.
as §6

In the case of `CC(=O)NC[C@H]1CN(c2ccc(N3CCOCC3)c(F)c2)C(=O)O1` [linezolid], the “activity against clinically latent microorganisms” value [1] is reported as “little or no activity”.
With `Cc1cc(N2CCC(Cc3ccccc3)C2)c2cc(Oc3ccccc3)ccc2n1` (stereo not shown) [HT230, 4-(3-benzylpyrrolidin-1-yl)-2-methyl-6-phenoxyquinoline] the “optical density reading at 405 nm” value ([2]; HT230 0.03125 μg/ml) was 1.237, the “optical density reading at 405 nm” value ([2]; HT230 0.0625 μg/ml) was 1.312 and the “optical density reading at 405 nm” value ([2]; HT230 0.125 μg/ml) was 1.317. The “optical density reading at 405 nm” value ([2]; HT230 0.25 μg/ml) was 1.401, the “optical density reading at 405 nm” value ([2]; HT230 0.5 μg/ml) was 1.135 and the “optical density reading at 405 nm” value ([2]; HT230 1 μg/ml) was 1.160. The “optical density reading at 405 nm” value ([2]; HT230 2 μg/ml) was 1.190, the “optical density reading at 405 nm” value ([2]; HT230 4 μg/ml) was 0.365 and the “optical density reading at 405 nm” value ([2]; HT230 8 μg/ml) was 0.363. For the same compound, the “optical density reading at 405 nm” value ([2]; HT230 16 μg/ml) was 0.357, the “optical density reading at 405 nm” value ([2]; HT230 32 μg/ml) was 0.406 and the MIC after combination ([2]; HT230/HT00800059 chequerboard) was 1 µg/mL. The MIC before combination ([2]; HT230/HT00800059 chequerboard) was 4 µg/mL, the MIC [2] was 4 µg/mL and the “HT230 MIC in combination” value ([2]; with HT00800059 at 128 μg/ml) was 4 µg/mL. For the same compound, the “HT230 MIC in combination” value ([2]; with HT00800059 at 256 μg/ml) was 1 µg/mL.
For `CC[C@H]1OC(=O)[C@H](C)[C@@H](O[C@H]2C[C@@](C)(OC)[C@@H](O)[C@H](C)O2)[C@H](C)[C@@H](O[C@@H]2O[C@H](C)C[C@H](N(C)C)[C@H]2O)[C@](C)(O)C[C@@H](C)CN(C)[C@H](C)[C@@H](O)[C@]1(C)O` [azithromycin], the “activity against clinically latent microorganisms” value [1] was “little or no activity”.
`Cc1nc2ccc(Oc3ccccc3)cc2c2c1CCN2CCc1ccccc1` [HT61, 4-methyl-1-(2-phenylethyl)-8-phenoxy-2,3-dihydro-1H-pyrrolo[3,2-c]-quinoline] was tested, and the “activity against stationary phase S. aureus” value ([3]; 8 μg/ml) was “low activity”, the “activity against stationary phase S. aureus” value ([3]; 4 and 2 μg/ml) was “no observed activity” and the MIC ([4]; Staphylococcus aureus, drug alone, Plate 1, read-out: MIC) was 8 µg/mL. The MIC ([4]; Staphylococcus aureus, read-out: alone MIC) was 16 µg/mL, the MIC ([4]; Staphylococcus aureus, with HT00800059 128 μg/ml, Plate 1, read-out: MIC of HT61 + HT00800059) was 4 µg/mL and the MIC ([4]; drug alone, Plate 2) was 8 µg/mL. For the same compound, the “MIC of HT61 + HT00800059” value ([4]; with HT00800059 128 μg/ml, Plate 2) was 4 µg/mL and the “HT61 MIC in combination” value ([4]; with HT00800059 at 128 μg/ml) was 8 µg/mL.
`Cc1cc(N2CCC(Cc3ccccc3)C2)c2cc(NC(=O)c3ccccc3)ccc2n1` (stereo not shown) [HT281, N-[4-(3-benzylpyrrolidin-1-yl)-2-methylquinolin-6-yl]benzamide] was tested, and the “optical density reading at 405 nm” value ([2]; HT281 0.125 μg/ml) was 1.334, the “optical density reading at 405 nm” value ([2]; HT281 0.25 μg/ml) was 1.281 and the “optical density reading at 405 nm” value ([2]; HT281 0.5 μg/ml) was 1.378. The “optical density reading at 405 nm” value ([2]; HT281 0.625 μg/ml) was 1.256, the “optical density reading at 405 nm” value ([2]; HT281 1 μg/ml) was 1.263 and the “optical density reading at 405 nm” value ([2]; HT281 2 μg/ml) was 1.157. For the same compound, the “optical density reading at 405 nm” value ([2]; HT281 4 μg/ml) was 1.080, the “optical density reading at 405 nm” value ([2]; HT281 8 μg/ml) was 0.361 and the “optical density reading at 405 nm” value ([2]; HT281 16 μg/ml) was 0.364. For the same compound, the “optical density reading at 405 nm” value ([2]; HT281 32 μg/ml) was 0.396, the “optical density reading at 405 nm” value ([2]; HT281 64 μg/ml) was 0.558 and the MIC after combination ([2]; HT281/HT00800059 chequerboard) was 4 µg/mL. The MIC before combination ([2]; HT281/HT00800059 chequerboard) was 8 µg/mL and the MIC [2] was 8 µg/mL.

Reference: patent publication US9789101B2, “Methods and compositions for treating microbial infection using pyrroloquinone” (HELPERBY THERAPEUTICS LIMITED, priority 2010, dated 2017)
